Results taken from patent US7576125B2, “Melanogenesis inhibitor and skin preparation containing the same” (Takasago International Corporation, priority 2003, dated 2009).

Assays:
Format in all cases: cell-based
[1] = test system: B16 melanoma cells; test: Melanogenesis inhibition test (visual evaluation) using B16 melanoma cells; conditions: 3 days culture
Experimental: The following tests a) and b) were conducted on the compounds shown in Synthesis Examples and Comparative Synthesis Examples to examine their melanogenesis-inhibiting effects. • a) Cytotoxicity test (using B16 melonoma cells) • b) Melanogenesis inhibition test (visual evaluation) (using B16 melonoma cells) Evaluation Methods
8×10^4 B16 melanoma cells were inoculated in a plastic-made culture flask (25 cm^2). The cells were cultured in a 10% serum-containing DMEN medium (produced by Nissui Pharmaceutical co., Ltd., trade name) in the presence of 5% carbon dioxide at 37° C. 3 days later, a test sample diluted with ethanol was added thereto, and culture was conducted for 3 days. After the completion of the culture, the medium was removed and the flask contents were washed with a phosphate buffer solution (hereinafter referred t as PBS). The cells were peeled from the flask inner wall using a medium containing trypsin and EDTA (ethylenediaminetetraacetic acid). The resulting cells suspension was centrifuged to recover cells. Part of the cells was taken and the number of cells was measured using a Coulter counter. […] A melanogenesis inhibition test was carried out in this concentration range. The cells obtained were washed once with PBS and then the whiteness of the precipitate was rated visually based on the following evaluation standard.
Evaluation Standard • −: Same as the solvent control (black) • +−: Slightly different from the solvent control (black-gray) • +: Clearly different from the solvent control (gray) • ++: Coloring of cells is very low (gray-white) • +++: No coloring of cells (white)

[2] = test system: tyrosinase biosynthesis in B16 melanoma cells; test: Tyrosinase biosynthesis hindrance test (intra-cell tyrosinase activity); conditions: 2 days
Experimental: A tyrosinase activity hindrance test and a tyrosinase biosynthesis hindrance test were conducted according to the following test methods to examine the mechanism for hindrance of melanin denovo synthesis. […] In this method, tyrosinase biosynthesis hindrance is indicated indirectly by measuring intra-cell tyrosinase activity. 100 μl of a suspension containing 3×10^5/ml of B16 melanoma cells was inoculated into a 96-well plate, and culture was made at 37° C. overnight in 5% CO2. Next day, the medium was changed with 200 μl of a sample-containing culture medium, and culture was made for 2 days under the same conditions. Thereafter, the supernatant liquid was removed and the residue was washed with 200 μl of a phosphate buffer solution twice. Then, 100 μl of 1% Triton X100 was added and the mixture was allowed to stand at room temperature for 1 hour, followed by gentle shaking. Next, 100 μl of 1% DOPA was added. Measurement was made in the same manner as in the above test method for tyrosinase activity hindrance.

[3] = test system: B16 melanoma cells; test: Cell propagation rate / cytotoxicity by MTT method on parallel plate

| Compound | whiteness of the cell precipitate rated visually (melanogenesis inhibition) ([1]; Concentration 12.5 μg/ml) | other results |
| --- | --- | --- |
| CC(C)COCc1ccc2c(c1)OCO2 [Synthesis Example 6, Piperonyl isobutyl ether] | ++ |  |
| CCCOCc1ccc2c(c1)OCO2 [Synthesis Example 5, Piperonyl n-propyl ether] | + |  |
| CCCCOCc1ccc2c(c1)OCO2 [Synthesis Example 2, piperonyl n-butyl ether] | ++ |  |
| CCCCCCCCOCc1ccc2c(c1)OCO2 [Synthesis Example 9, Piperonyl n-octyl ether] | + | whiteness of the cell precipitate rated visually (melanogenesis inhibition) ([1]; Concentration 6.3 μg/ml): + |
| O=c1cc(CO)occ1O [kojic acid] |  | Tyrosinase biosynthesis hindrance, Hindrance % ([2]; 50 ppm): 21.0%; Tyrosinase biosynthesis hindrance, Hindrance % ([2]; 100 ppm): 21.0%; Tyrosinase biosynthesis hindrance, Hindrance % ([2]; 200 ppm): 21.0%; Cell propagation rate % ([3]; 50 ppm): 100.8%; Cell propagation rate % ([3]; 100 ppm): 97.3%; Cell propagation rate % ([3]; 200 ppm): 96.2% |
| CCOCc1ccc2c(c1)OCO2 [Synthesis Example 4, Piperonyl ethyl ether] | − |  |
| CC(C)CCOCc1ccc2c(c1)OCO2 [Synthesis Example 7, Piperonyl isoamyl ether] | ++ |  |
| COCc1ccc2c(c1)OCO2 [Synthesis Example 3, Piperonyl methyl ether] | − |  |
| CCCCCCOCc1ccc2c(c1)OCO2 [Synthesis Example 8, Piperonyl n-hexyl ether] | ++ |  |
